Patent publication US20030235577A1, “Methods and compositions for preventing and treating microbial infections” (priority 2002, published 2003)

Assays:
[1] = system: S aureus; experiment: Dose response of S. aureus to MMP-12 C-terminal peptides; format: cell-based, Staphylococcus aureus; conditions: various concentrations of peptide, 100 minutes
Experimental: Dose response: samples of S aureus were incubated with various concentrations of murine peptide (SEQ ID NO: 37), human peptide (SEQ ID NO: 36) and Human SNP peptide (SEQ ID NO:55). The human SNP peptide (SEQ ID NO:55) has a single nucleotide change from the sequence of SEQ ID NO 36. The peptide SEQ ID NO:36 has the amino acid sequence: […] and the peptide SEQ ID NO:55 has the amino acid sequence […]. The amount of bacteria remaining at various the various concentrations was determined for each group of a 100 minute time course.

[2] = system: S. aureus; experiment: Peritonitis model, peptide injected intraperitoneally after S. aureus; format: in vivo, C57/B16 mice; conditions: 72 hour time point, peptide 1 mg intraperitoneally; for survival: S. aureus 6×10^7 CFU
Experimental: Bacterial preparation: Staphylococcus aureus a clinical isolate was grown in tryptic soy broth for 18 hours at 37° C. An aliquot was placed in fresh media and grown until mid-log phase of growth. S. aureus was centrifuged and washed in sterile PBS and diluted. Bacteria concentration of O.D.540 of 0.9, corresponding to a concentration of 6×10^7 CFU/ml was used for inoculation.
Peptide preparation: Murine MMP-12 C-terminal peptide […] (SEQ ID NO:37; 333-352) and Human MMP-12 C-terminal peptide […] (SEQ ID NO:36; 341-359) and a human MMP-12 peptide with a single nucleotide polymorphism: […] (SEQ ID NO:55) were solubilized in sterile H2O at a concentration of 4 mg/ml.
Peritonitis model: C57/B16 mice received intraperitoneal injection of bacteria in a total volume of 1 ml (6×10^7 CFU). Peptides were intraperitoneally injected immediately after at a dose of 1 mg. […] The control mice received the same intraperitoneal injection of bacteria as in the test groups and then received an injection of vehicle with no peptide.

[3] = system: S. aureus; experiment: In vitro antimicrobial activity, co-incubation with S. aureus in 5% LB and CFU count; format: cell-based, Staphylococcus aureus; conditions: S. aureus, 5% LB culture, similar doses and conditions as full-length MMP-12
Experimental: S. aureus co-culture was incubated for 60 minutes with doses of MMP-12 C-terminal. Aliquots of cultures were diluted in PBS at 1:10 and 1:100 dilution. Dilutions were plated on LB agar plates for 18 hour incubation at 37° C. Controls consisted of column fractions that lacked MMP-12 carboxy terminal determined by immunoblotting.
MMP-12's mechanism of action as a host defense protein was investigated. To test for direct activity, functional full-length recombinant human MMP-12 was incubated with S. aureus in a 5% LB culture. […] MMP-12 enzymatic activity was not required for this antimicrobial effect.
Mid-log phase bacteria (10^5) were incubated in the absence or presence of purified MMP-12 C-terminal in a total volume of 100 μl of 10 mmol/L sodium phosphate containing 5% (vol/vol) TSB at 37° C. for 1 hour. Serial dilutions were then spread on agarose plates and the number of CFUs were determined after overnight incubation.

[4] = system: S. aureus; experiment: Propidium iodide exclusion assay with fluorescence microscopy; format: cell-based, Staphylococcus aureus; conditions: 20 μg/ml, 30 minutes
Experimental: Recombinant segments of MMP-12 C-terminal were generated each covering one third of the C-terminal. Segments were then tested for anti-microbial activity against S. aureus. […] We hypothesized that in this region there was a secondary structure that had potential antimicrobial structure and properties consistent with the structure in cathelicidins. A predicted amphipathic and alpha helical structure was found in this region, which was conserved in the MMP-12 C-terminal domains from rabbit, rat, mouse and human. […] These studies have been repeated n>10 with similar results. FIG. 10 illustrates thae effect of MMP-12 C-terminal domain on cell survival.

With “ARNQVFLFKDDKYWLISNLR (listed as Homo sapiens) [Human MMP-12 peptide]” the “amount of S. aureus remaining” value [1] was “zero S. aureus at most concentrations”, the “activity (clinical observation)” value [2] was “normal activity” and the survival [2] was 100%.

With “ARNQVFLFKDDKYWLISSLR (listed as Homo sapiens) [Human SNP]” the “amount of S. aureus remaining” value [1] was “zero S aureus at all concentrations”.

“MMP-3: commercially available full length pro-MMP 3 [reference compound]” was tested, and the direct antimicrobial activity [3] was “did not demonstrate this direct antimicrobial activity”.

In the case of “MMP-7: commercially available full length pro-MMP 7 [reference compound]”, the direct antimicrobial activity [3] is reported as “did not demonstrate this direct antimicrobial activity”.

In the case of “MMP-8: commercially available full length pro-MMP 8 [reference compound]”, the direct antimicrobial activity [3] is reported as “did not demonstrate this direct antimicrobial activity”.

With “SRDLMFIFRGRKFWALNGYD [MMP-13 peptide, reference compound]” the “bacterial death, uptake of membrane impermeant dye” value [4] was “little dye uptake”.

In the case of “SRNQLFLFKDEKYWLINNLV (listed as Mus musculus) [Murine MMP-12 peptide]”, the “amount of S. aureus remaining” value [1] is reported as “higher at each concentration”, the “bacterial death, uptake of membrane impermeant dye” value [4] is reported as “clumping and increased uptake of membrane impermeant dye” and the “activity (clinical observation)” value [2] is reported as “decrease activity”. It also gave a survival [2] of 75%.
